Data as given in patent publication US9302999B2, “Substituted triazoles as herbicides” (E. I. DU PONT DE NEMOURS AND COMPANY, priority 2012, dated 2016).

Key:
Format in all cases: in vivo
[1] = system: barnyardgrass (Echinochloa crus-galli); assay: Test A pre-/postemergence: barnyardgrass; conditions: for Barnyardgrass plant response rating: Postemergence; for Plant response rating, Barnyardgrass: Preemergence
How it was run: (§1)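 Injury is scored visually on a scale where 0 means no effect and 100 complete control, comparing treated with untreated plants after approximately ten greenhouse days. Both preemergence and postemergence applications are made at the same time.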

[2] = system: crabgrass, large (large crabgrass, Digitaria sanguinalis); assay: Test A pre-/postemergence: crabgrass, large; conditions: for Crabgrass, Large plant response rating: Postemergence; for Plant response rating, Crabgrass, Large: Preemergence
How it was run: as §1

[3] = system: foxtail, giant (giant foxtail, Setaria faberii); assay: Test A pre-/postemergence: foxtail, giant; conditions: for Foxtail, Giant plant response rating: Postemergence; for Plant response rating, Foxtail, Giant: Preemergence
How it was run: as §1

[4] = system: morningglory (Ipomoea spp.); assay: Test A pre-/postemergence: morningglory; conditions: for Morningglory plant response rating: Postemergence; for Plant response rating, Morningglory: Preemergence
How it was run: as §1

[5] = system: pigweed (Amaranthus retroflexus); assay: Test A pre-/postemergence: pigweed; conditions: for Pigweed plant response rating: Postemergence; for Plant response rating, Pigweed: Preemergence
How it was run: as §1

[6] = system: velvetleaf (Abutilon theophrasti); assay: Test A pre-/postemergence: velvetleaf; conditions: for Velvetleaf plant response rating: Postemergence; for Plant response rating, Velvetleaf: Preemergence
How it was run: as §1

[7] = system: wheat (Triticum aestivum); assay: Test A pre-/postemergence: wheat; conditions: for Wheat plant response rating: Postemergence; for Plant response rating, Wheat: Preemergence
How it was run: as §1

corn (Zea mays) = assay: Test A pre-/postemergence: corn; conditions: for Corn plant response rating: Postemergence; for Plant response rating, Corn: Preemergence
How it was run: as §1

rice (Oryza sativa) = assay: Test C flooded paddy test: rice; conditions: scale 0 to 100 (0 no effect, 100 complete control)
How it was run: (§2)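 Visual ratings from 0 (no effect) to 100 (complete control), made against untreated controls 13 to 15 days after treatment, express plant response. Compounds went directly into paddy water over 2-leaf stage plants in pots flooded to 3 cm.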

[8] = system: sedge, umbrella (small-flower umbrella sedge, Cyperus difformis); assay: Test C flooded paddy test: sedge, umbrella; conditions: scale 0 to 100 (0 no effect, 100 complete control)
How it was run: as §2

[9] = system: ducksalad (Heteranthera limosa); assay: Test C flooded paddy test: ducksalad; conditions: scale 0 to 100 (0 no effect, 100 complete control)
How it was run: as §2

[10] = system: barnyardgrass (Echinochloa crus-galli); assay: Test C flooded paddy test: barnyardgrass; conditions: scale 0 to 100 (0 no effect, 100 complete control)
How it was run: as §2

[11] = 125 g ai/ha, 0 to 100 scale, 0 is no effect, 100 is complete control
[12] = 500 g ai/ha, visual rating on 0 to 100 scale (0 no effect, 100 complete control), approximately ten days
[13] = 125 g ai/ha, 0 to 100 scale (0 no effect, 100 complete control)
[14] = 500 g ai/ha, 0 to 100 scale, 0 is no effect, 100 is complete control
[15] = Flood (flooded paddy test), 62 g ai/ha, visual rating after 13 to 15 days
[16] = Flood (flooded paddy test), 125 g ai/ha, visual rating after 13 to 15 days
[17] = Flood (flooded paddy test), 250 g ai/ha, visual rating after 13 to 15 days

## Cc1nn(-c2ccc(I)cc2)nc1C(=O)c1cccc(C(F)(F)F)c1 [Compound 61]
[1]; [11]
  Barnyardgrass plant response rating: 0
[1]; [12]
  Barnyardgrass plant response rating: 10
[1]; [13]
  Plant response rating, Barnyardgrass: 0
[1]; [14]
  Plant response rating, Barnyardgrass: 0
[2]; [11]
  Crabgrass, Large plant response rating: 0
[2]; [12]
  Crabgrass, Large plant response rating: 10
[2]; [13]
  Plant response rating, Crabgrass, Large: 0
[2]; [14]
  Plant response rating, Crabgrass, Large: 10
[3]; [11]
  Foxtail, Giant plant response rating: 0
[3]; [12]
  Foxtail, Giant plant response rating: 10
[3]; [13]
  Plant response rating, Foxtail, Giant: 0
[3]; [14]
  Plant response rating, Foxtail, Giant: 10
[4]; [11]
  Morningglory plant response rating: 10
[4]; [12]
  Morningglory plant response rating: 30
[4]; [13]
  Plant response rating, Morningglory: 0
[4]; [14]
  Plant response rating, Morningglory: 0
[5]; [11]
  Pigweed plant response rating: 40
[5]; [12]
  Pigweed plant response rating: 80
[5]; [13]
  Plant response rating, Pigweed: 0
[5]; [14]
  Plant response rating, Pigweed: 10
[6]; [11]
  Velvetleaf plant response rating: 10
[6]; [12]
  Velvetleaf plant response rating: 30
[6]; [13]
  Plant response rating, Velvetleaf: 0
[6]; [14]
  Plant response rating, Velvetleaf: 0
[7]; [11]
  Wheat plant response rating: 0
[7]; [12]
  Wheat plant response rating: 0
[7]; [13]
  Plant response rating, Wheat: 0
[7]; [14]
  Plant response rating, Wheat: 0
Corn (Zea mays); [11]
  Corn plant response rating: 10
Corn (Zea mays); [12]
  Corn plant response rating: 10
Corn (Zea mays); [13]
  Plant response rating, Corn: 0
Corn (Zea mays); [14]
  Plant response rating, Corn: 0
Rice (Oryza sativa); [15]
  Plant response rating, Rice: 0
Rice (Oryza sativa); [16]
  Plant response rating, Rice: 0
Rice (Oryza sativa); [17]
  Plant response rating, Rice: 0
Rice (Oryza sativa); Flood, 31 g ai/ha
  Plant response rating, Rice: 0
[8]; [15]
  Plant response rating, Sedge, Umbrella: 0
[8]; [16]
  Plant response rating, Sedge, Umbrella: 0
[8]; [17]
  Plant response rating, Sedge, Umbrella: 0
[8]; Flood, 31 g ai/ha
  Plant response rating, Sedge, Umbrella: 0
[9]; [15]
  Plant response rating, Ducksalad: 0
[9]; [16]
  Plant response rating, Ducksalad: 0
[9]; [17]
  Plant response rating, Ducksalad: 0
[9]; Flood, 31 g ai/ha
  Plant response rating, Ducksalad: 0
[10]; [15]
  Plant response rating, Barnyardgrass: 0
[10]; [16]
  Plant response rating, Barnyardgrass: 0
[10]; [17]
  Plant response rating, Barnyardgrass: 0
[10]; Flood, 31 g ai/ha
  Plant response rating, Barnyardgrass: 0
